Reference: PubChem BioAssay (NCI)
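Step 1: Grow cells in 96-well plates. Step 2: Expose to compound for 48 hours at 5 concentrations. Step 3: Interpolate endpoints linearly; if unreached, use highest concentration. TGI is the concentration that stops growth completely.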

What was measured:
Assay in all cases: NCI tumour cell line growth inhibition, 48 h
SNB-19 CNS = system: SNB-19 CNS
HCT-15 colon = system: HCT-15 colon
OVCAR-3 ovarian = system: OVCAR-3 ovarian
T-47D breast = system: T-47D breast
HOP-92 NSCLC = system: HOP-92 NSCLC
IGROV1 ovarian = system: IGROV1 ovarian
NCI/ADR-RES ovarian = system: NCI/ADR-RES ovarian
RXF 393 renal = system: RXF 393 renal
SF-295 CNS = system: SF-295 CNS
MDA-MB-435 = system: MDA-MB-435

NC1=Nc2ccccc2Sc2nccn21
TGI (SNB-19 CNS): > 100 µM
TGI (HCT-15 colon): 59.7 µM
TGI (OVCAR-3 ovarian): 66 µM
TGI (T-47D breast): 98.9 µM
TGI (HOP-92 NSCLC): 40.8 µM
TGI (IGROV1 ovarian): > 100 µM
TGI (NCI/ADR-RES ovarian): 72 µM
TGI (RXF 393 renal): 56.5 µM
TGI (SF-295 CNS): 43.7 µM
TGI (MDA-MB-435): 59 µM

Cc1ccc(C(=O)C2C=C(c3ccc(C)cc3)SC3C=CCC32)cc1 (stereo not given)
TGI (SNB-19 CNS): > 100 µM
TGI (HCT-15 colon): 47.9 µM
TGI (OVCAR-3 ovarian): 31.8 µM
TGI (T-47D breast): 50.6 µM
TGI (HOP-92 NSCLC): 34 µM
TGI (IGROV1 ovarian): 40.1 µM
TGI (NCI/ADR-RES ovarian): 40.8 µM
TGI (RXF 393 renal): 37.7 µM
TGI (SF-295 CNS): 39.9 µM
TGI (MDA-MB-435): 30 µM

O=C1NCN(c2ccccc2)C12CCN(CCCN1CCN(CCOC(c3ccccc3)c3ccccc3)CC1)CC2
TGI (SNB-19 CNS): 7.77 µM
TGI (HCT-15 colon): 5.19 µM
TGI (OVCAR-3 ovarian): 6.93 µM
TGI (T-47D breast): 7.18 µM
TGI (HOP-92 NSCLC): 5.54 µM
TGI (IGROV1 ovarian): 7.4 µM
TGI (NCI/ADR-RES ovarian): 8.91 µM
TGI (RXF 393 renal): 4.68 µM
TGI (SF-295 CNS): 6.41 µM
TGI (MDA-MB-435): 2.46 µM

CCCCCCCCCCCCCC(=O)OCC(CCS(=O)(=O)O[C@H]1CC[C@@]2(C)C(=CC[C@@H]3C2CC[C@]2(C)C(=O)CCC32)C1)OC(=O)CCCCCCCCCCCCC (stereo not given in full)
TGI (SNB-19 CNS): > 100 µM
TGI (HCT-15 colon): > 100 µM
TGI (OVCAR-3 ovarian): > 100 µM
TGI (T-47D breast): > 100 µM
TGI (HOP-92 NSCLC): > 100 µM
TGI (IGROV1 ovarian): > 100 µM
TGI (NCI/ADR-RES ovarian): > 100 µM
TGI (RXF 393 renal): > 100 µM
TGI (SF-295 CNS): > 100 µM
TGI (MDA-MB-435): > 100 µM

CCOc1cc2c(cc1O)C=C[C@@H]1[C@@H]2CC[C@]2(C)[C@@H](O)CC[C@@H]12
TGI (SNB-19 CNS): > 55.4 µM
TGI (HCT-15 colon): 20.1 µM
TGI (OVCAR-3 ovarian): 6.74 µM
TGI (T-47D breast): 77.4 µM
TGI (HOP-92 NSCLC): > 100 µM
TGI (IGROV1 ovarian): > 75.1 µM
TGI (NCI/ADR-RES ovarian): 12.8 µM
TGI (RXF 393 renal): > 96.1 µM
TGI (SF-295 CNS): 5.45 µM
TGI (MDA-MB-435): 1.36 µM

CCc1cc2c(cc1C(=O)CCC(=O)O)CC1(C2)Cc2cc(CC)c(C(=O)CCC(=O)O)cc2C1
TGI (SNB-19 CNS): > 100 µM
TGI (HCT-15 colon): > 100 µM
TGI (OVCAR-3 ovarian): > 100 µM
TGI (T-47D breast): > 100 µM
TGI (HOP-92 NSCLC): > 100 µM
TGI (IGROV1 ovarian): > 100 µM
TGI (NCI/ADR-RES ovarian): > 100 µM
TGI (RXF 393 renal): > 100 µM
TGI (SF-295 CNS): > 100 µM
TGI (MDA-MB-435): > 100 µM

CCOC(=O)C1=NN(c2ccc(C)cc2)C2(c3ccccc3)C=C(c3ccccc3)N(C)CCN12 (stereo not given)
TGI (SNB-19 CNS): > 100 µM
TGI (HCT-15 colon): > 100 µM
TGI (OVCAR-3 ovarian): > 100 µM
TGI (T-47D breast): > 100 µM
TGI (HOP-92 NSCLC): > 100 µM
TGI (IGROV1 ovarian): > 100 µM
TGI (NCI/ADR-RES ovarian): > 100 µM
TGI (RXF 393 renal): > 100 µM
TGI (SF-295 CNS): > 100 µM
TGI (MDA-MB-435): > 100 µM

CCN(CC)CCOCCOCC1(c2ccc(Cl)c(Cl)c2)CCCCC1
TGI (SNB-19 CNS): 26.4 µM
TGI (HCT-15 colon): 15.3 µM
TGI (OVCAR-3 ovarian): 22.3 µM
TGI (T-47D breast): 17.7 µM
TGI (HOP-92 NSCLC): 17.7 µM
TGI (IGROV1 ovarian): 23.8 µM
TGI (NCI/ADR-RES ovarian): 24.3 µM
TGI (RXF 393 renal): 17.6 µM
TGI (SF-295 CNS): 15.1 µM
TGI (MDA-MB-435): 13.6 µM
